Columns and labels:
human LOX-1 = human LOX-1 (Homo sapiens, UniProt P78380); experiment: Thermal shift assay with purified LOX-1 protein; format: binding; set-up: It encodes for 147 amino acids for the LOX-1 fragment (residues 136-273); made in house; host or cells: E. coli BL21 (DE3), co-expressed with DsbC; conditions: for thermal shift (in words): differential scanning fluorimetry; for thermal shift of LOX-1 protein: LOX-1 protein 4 μM, ligand 50 μM, shifts in Celsius
From the text: FIG. 2A, FIG. 2B and FIG. 2C depict the docking of the 5 lead compounds and the thermal denaturation assay: (FIG. 2A) The figure depicts the docking of the 5 lead compounds in the binding pocket of LOX-1. LOX-1 is shown as a ribbon model with one monomer in magenta and the other in blue. The compounds are shown as stick models in separate colors. (FIG. 2B) Hydrogen bonding interactions of the compounds as they dock to LOX-1. (FIG. 2C) The measured thermal shifts (in Celsius) are depicted for all five molecules. The solutions contained LOX-1 protein at 4 μM concentration. The ligand concentrations were 50 μM.
As the next step, a protein assay was performed to assess the interaction of the lead compounds with LOX-1 protein for an additional confirmation of the binding to LOX1. The extracellular domain of LOX-1 was expressed and the protein was purified. Using the purified protein, a thermal shift assay was performed. The technique involves measuring thermal denaturation temperatures of the protein in the presence and absence of inhibitors. A larger shift in thermal denaturation is indicative of a tight binding of the ligand to the protein.
In short, the thermal shift assay was performed using a real-time PCR detection system with the fluorescent dye sypro orange to monitor protein unfolding. Fluorescence increases upon protein unfolding because sypro orange has higher quantum in lower dielectric medium and low quantum in higher dielectric medium. During the thermal shift assay a protein exposes the hydrophobic region which corresponds to a lower dielectric environment. The thermal shift assay instrument contains accurate temperature control devices and a CCD detector for simultaneous imaging of fluorescence changes in the microplate. The typical reaction volume of a thermal shift assay is 20 μl, which includes the protein solution, the test compound solution, and the sypro orange. The temperature in the real-time PCR machine during the thermal shift assay was ramped 0.5° C./minute till 100° C.
The C-terminal domain of LOX-1 was expressed by using the protocols reported earlier^12. As this domain contains several disulfide bridges, it was co-expressed with DsbC, a Chaperone disulfide isomerase. The genes were custom synthesized by Genscript (Piscataway, N.J.) using gene map described in Park el al^12. It encodes for 147 amino acids for the LOX-1 fragment (residues 136-273) and 236 amino acids for DsbC. The gene was incorporated into a pET15b vectors by Genscript. The vectors were then transformed into Dh5α cells for amplification and BL21 (DE3) E. coli (Novagen) cells for expression. The proteins were expressed by adding 0.4 mM isopropyl β-D-thiogalactoside in E. coli cells grown in LB medium containing kanamycin, tetracycline, and carbenicillin at 23° C., with 250 rpm agitation, for 20 h. The protein was purified using a nickel-nitrilotriacetic acid column (Qiagen, Valencia, Calif.). And then, the protein samples were concentrated to 10 mg/ml.
LOX-1 protein was incubated with fluorescent dye Sypro Orange (Invitrogen/Life Technologies, Grand Island, N.Y.) and the thermal unfolding of the LOX-1 protein was monitored by measuring the fluorescence using Bio-Rad Real Time PCR machine. We measured the melting temperatures in the absence and presence of the inhibitors 4 tM of LOX-1 protein was incubated with Sypro Orange and heated in stepwise increments of 0.5° C. per min from 25-99° C. The wavelength for excitation was set to 490 and emission was set to 575 nm for Sypro Orange. Fluorescence was measured after every minute for each 0.5° C. increase.

LOX-1 mRNA = experiment: ox-LDL-induced LOX-1 mRNA expression in HUVECs (q-PCR); format: cell-based, human; conditions: for effect on ox-LDL-induced LOX-1 mRNA upregulation / LOX-1 transcription (in words): 5 μg/ml ox-LDL 6 h, 20, 200, 2000 nM; for reduction of LOX-1 transcription: 200 nM concentration
Description: FIG. 3A, FIG. 3B, FIG. 3C and FIG. 3D depict the inhibitory effect of the lead compounds on Dil-ox-LDL uptake by HUVECs and CHO cells (measured by flow cytometry) and the effect of the lead compounds on ox-LDL-induced LOX-1 mRNA and protein expression. (FIG. 3A) (Upper Panel) Flow cytometry measurements using HUVECs in the presence of the five lead compounds (Mol-1-Mol-5), each a at 200 nM concentration. (Lower Panel) The percentage of internalized ox-LDL. Graphs show data as mean (±SD); n=4. *P<0.01 or <0.05 vs. control. (FIG. 3B) IC50 value for Mol-5. IC50 value (in nM) is based on inhibition of Dil-ox-LDL uptake in CHO cells overexpressing human LOX-1. Graphs show data as mean (±SD); n=5. *P<0.01 or <0.05 vs. control. (FIG. 3C) Western blotting assay showing LOX-1 protein expression in HUVECs following incubation with 200 nM Mol-1 to Mol-5 for 30 min, and subsequently exposure to 5 μg/mL ox-LDL for 6 hours. (FIG. 3D) The variation of LOX-1 mRNA expression levels at different concentrations of the compounds following exposure of HUVECs to 5 μg/mL ox-LDL. The concentrations are indicated on the X-axis and the LOX-1 mRNA levels are shown on the Y-axis. The plots for all the five molecules are shown in separate colors. Graphs show data as mean (±SD); n=3. *P<0.01 vs. control; #P<0.01 vs. ox-LDL group.
LOX-1 mRNA levels in HUVECs treated with ox-LDL in the absence or presence of the lead molecules at varying concentrations was also measured.
HUVECs were plated into 12-well plates, and treated with 0, 20, 200 and 2000 nM of each of 5 molecules […] for 30 min, and subsequently exposed to […] ox-LDL for 6 h at 37° C. Total RNA was isolated from the treated HUVECs by using a RNeasy Mini-Kit […] according to the manufacturer's instructions. Prior to using, RNA was treated with DNase I and diluted to 100 ng/tL. 100 ng RNA was applied to synthesize cDNA with SuperScript III 1st Strand DNA Synthesis Kit. qPCR was performed using the Applied Biosystems Fast 7500HT real-time PCR system with a 20 tL reaction volume including 10 tL GoTaq qPCR Master Mix (Promega, Madison, Wis.), 100 ng of cDNA and 0.3 tM primers. Data was analyzed by using MX3000P software. Relative mRNA expression was quantified using the comparative threshold cycle (Ct) method. The sequences of primers used for PCR reaction have been described previously^30.

| SMILES | thermal shift (in words) (human LOX-1) | effect on ox-LDL-induced LOX-1 mRNA upregulation / LOX-1 transcription (in words) (LOX-1 mRNA) | thermal shift of LOX-1 protein (human LOX-1) [°] | reduction of LOX-1 transcription (LOX-1 mRNA) [%] |
| --- | --- | --- | --- | --- |
| CC(C)(C)C(=O)NCCc1nc2ccccc2n1Cc1ccccc1F [Mol-2] | did not show measurable shifts | no significant effect | – | – |
| CCCn1c(CCNC(=O)CCCO)nc2ccccc21 [Mol-4] | significant thermal shift | significantly reduced | 10 | 47 |
| CCOCCCNC(=O)CCN1C(=O)COc2ccccc21 [Mol-1] | did not show measurable shifts | – | – | – |
| Cc1cc(C)n(CC(O)COc2ccccc2)n1 (centres unmarked) [Mol-5, 1-(3,5-dimethyl-1H-pyrazol-1-yl)-3-phenoxypropan-2-ol] | significant thermal shift | significantly reduced | 4 | 70 |
